Results from PubChem BioAssay AID256 (DTP/NCI, 2004).
Where “and” joins values, the source holds several entries; their conditions need not be identical. Equal values may be shown once. Toxic doses and inconclusive results are not listed.

Test system: CD2F1 mice, L1210 leukemia ip, survival T/C
Test: NCI In Vivo Anticancer Drug Screen. Data for tumor model L1210 Leukemia (intraperitoneal) in CD2F1 (CDF1) mice
Conditions: higher = longer survival
Method in brief: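 Tumor-bearing mice (transplanted tumor) were split into treated and vehicle control groups, and the measured endpoint of each treated group was divided by that of its vehicle controls.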

[1] = endpoint: mean survival time, dose: 25.0 mg/kg/injection, schedule: Q01DX009 (ip), vehicle: saline with Tween-80
[2] = endpoint: mean survival time, dose: 25.0 mg/kg/injection, schedule: Q04DX003 (ip), vehicle: saline with Tween-80
[3] = endpoint: mean survival time, dose: 100.0 mg/kg/injection, schedule: Q01DX009 (ip), vehicle: saline with Tween-80
[4] = endpoint: mean survival time, dose: 100.0 mg/kg/injection, schedule: Q04DX003 (ip), vehicle: saline with Tween-80
[5] = endpoint: mean survival time, dose: 200.0 mg/kg/injection, schedule: Q04DX003 (ip), vehicle: saline with Tween-80
[6] = endpoint: mean survival time, dose: 400.0 mg/kg/injection, schedule: Q04DX003 (ip), vehicle: saline with Tween-80
[7] = endpoint: mean survival time, dose: 100.0 mg/kg/injection, schedule: Q01DX009 (ip), vehicle: water
[8] = endpoint: mean survival time, dose: 200.0 mg/kg/injection, schedule: Q01DX009 (ip), vehicle: water

SMILES: [Cl][Pt+2][Cl].[NH-]C(CO)C([NH-])CO (stereo not drawn)
- T/C (endpoint: median survival time, dose: 1.25 mg/kg/injection, schedule: Q04DX003 (ip), vehicle: water): 102 % of control
- T/C (endpoint: median survival time, dose: 2.5 mg/kg/injection, schedule: Q04DX003 (ip), vehicle: water): 102 % of control
- T/C (endpoint: median survival time, dose: 5.0 mg/kg/injection, schedule: Q04DX003 (ip), vehicle: water): 115 % of control
- T/C (endpoint: median survival time, dose: 12.5 mg/kg/injection, schedule: Q04DX003 (ip), vehicle: distilled water + Tween-80): 156 % of control
- T/C (endpoint: median survival time, dose: 20.0 mg/kg/injection, schedule: Q04DX003 (ip), vehicle: water): 93 % of control

SMILES: Cc1ccc(NC2=NCCS2)c(C)c1
- T/C (endpoint: mean survival time, dose: 25.0 mg/kg/injection, schedule: Q01DX001 (ip), vehicle: saline with Tween-80): 106 % of control
- T/C [1]: 89 % of control and 95 % of control
- T/C (endpoint: mean survival time, dose: 25.0 mg/kg/injection, schedule: Q04DX002 (ip), vehicle: saline with Tween-80): 104 % of control and 106 % of control
- T/C [2]: 101 % of control
- T/C (endpoint: mean survival time, dose: 50.0 mg/kg/injection, schedule: Q01DX001 (ip), vehicle: saline with Tween-80): 106 % of control
- T/C (endpoint: mean survival time, dose: 50.0 mg/kg/injection, schedule: Q01DX009 (ip), vehicle: saline with Tween-80): 97 % of control and 103 % of control
- T/C (endpoint: mean survival time, dose: 50.0 mg/kg/injection, schedule: Q04DX002 (ip), vehicle: saline with Tween-80): 95 % of control and 110 % of control
- T/C (endpoint: mean survival time, dose: 50.0 mg/kg/injection, schedule: Q04DX003 (ip), vehicle: saline with Tween-80): 98 % of control
- T/C (endpoint: mean survival time, dose: 100.0 mg/kg/injection, schedule: Q01DX001 (ip), vehicle: saline with Tween-80): 102 % of control
- T/C [3]: 103 % of control
- T/C [4]: 96 % of control

SMILES: CN(C)c1ccc(N=Nc2ccc(Cl)c(Cl)c2)cc1
- T/C [4]: 98 % of control
- T/C [5]: 95 % of control
- T/C [6]: 96 % of control

SMILES: NCCS(=O)(=O)O
- T/C [7]: 95 % of control
- T/C (endpoint: mean survival time, dose: 200.0 mg/kg/injection, schedule: Q01DX001 (ip), vehicle: water): 98 % of control
- T/C [8]: 86 % of control
- T/C (endpoint: mean survival time, dose: 400.0 mg/kg/injection, schedule: Q01DX001 (ip), vehicle: water): 96 % of control
- T/C (endpoint: mean survival time, dose: 400.0 mg/kg/injection, schedule: Q01DX009 (ip), vehicle: water): 92 % of control
- T/C (endpoint: mean survival time, dose: 800.0 mg/kg/injection, schedule: Q01DX001 (ip), vehicle: water): 98 % of control
- T/C (endpoint: mean survival time, dose: 800.0 mg/kg/injection, schedule: Q01DX009 (ip), vehicle: water): 92 % of control
- T/C (endpoint: mean survival time, dose: 1600.0 mg/kg/injection, schedule: Q01DX001 (ip), vehicle: water): 107 % of control

SMILES: O=c1[nH]c(=S)n2ncnc2[nH]1
- T/C (endpoint: mean survival time, dose: 100.0 mg/kg/injection, schedule: Q01DX009 (ip), vehicle: acetone): 97 % of control
- T/C (endpoint: mean survival time, dose: 200.0 mg/kg/injection, schedule: Q01DX009 (ip), vehicle: acetone): 103 % of control
- T/C (endpoint: mean survival time, dose: 400.0 mg/kg/injection, schedule: Q01DX009 (ip), vehicle: acetone): 95 % of control

SMILES: N#Cc1ccc(C(=O)CC(O)(C(F)(F)F)C(F)(F)F)cc1
- T/C [4]: 101 % of control
- T/C [5]: 101 % of control
- T/C [6]: 98 % of control

SMILES: CS(=O)(=O)OCCOS(C)(=O)=O
- T/C [3]: 109 % of control
- T/C [4]: 104 % of control
- T/C (endpoint: mean survival time, dose: 200.0 mg/kg/injection, schedule: Q01DX009 (ip), vehicle: saline with Tween-80): 116 % of control
- T/C [5]: 115 % of control
- T/C [6]: 111 % of control

SMILES: O=[N+]([O-])/C(=C/c1ccccc1)c1ccccc1
- T/C (endpoint: mean survival time, dose: 6.25 mg/kg/injection, schedule: Q01DX009 (ip), vehicle: saline with Tween-80): 107 % of control
- T/C (endpoint: mean survival time, dose: 6.25 mg/kg/injection, schedule: Q04DX003 (ip), vehicle: saline with Tween-80): 101 % of control
- T/C (endpoint: mean survival time, dose: 12.5 mg/kg/injection, schedule: Q01DX009 (ip), vehicle: saline with Tween-80): 105 % of control
- T/C (endpoint: mean survival time, dose: 12.5 mg/kg/injection, schedule: Q04DX003 (ip), vehicle: saline with Tween-80): 97 % of control
- T/C [1]: 103 % of control
- T/C [2]: 101 % of control

SMILES: O=C(c1ccc(-c2ccccc2)cc1)C(Br)C(Br)c1ccccc1 (stereo not drawn)
- T/C (endpoint: mean survival time, dose: 12.5 mg/kg/injection, schedule: Q01DX009 (ip), vehicle: water): 95 % of control
- T/C (endpoint: mean survival time, dose: 50.0 mg/kg/injection, schedule: Q01DX009 (ip), vehicle: water): 90 % of control
- T/C [7]: 90 % of control
- T/C [8]: 102 % of control
